Laboratory results from US20250289804A1, “SUBSTITUTED INDOLE COMPOUNDS AND METHODS OF USE THEREOF” (NOVARTIS PHARMA AG, priority 2021, published 2025).
Where two headings read alike, the source gives them in different places.

Tests used:
human C3bBb = human C3bBb (Homo sapiens (Human), UniProt P00751); assay: Human C3bBb enzyme assay (C3a generation from C3, ELISA); type: biochemical; conditions: read-out: Human C3b:Bb IC50 Avg
Method: Compounds disclosed herein were evaluated for their potency to inhibit human C3bBb in a biochemical assay. To generate active C3bBb complex in vitro, purified human C3b (Complement Technology, A114), CFB (Complement Technology, A135) and CFD (Complement Technology, A136) were mixed in a 1:1:1 ratio to a final concentration of 1 μM each in the C3bBb assay buffer (PBS pH 7.4, 100 μM NiCl2, 0.05% (w/v) CHAPS). The reaction mix was incubated at room temperature for 30 minutes on a rotating platform. […] On the day of the enzyme assay, a reaction mixture containing 3 nM C3bBb complex and 1 μM purified human C3 (Complement Technology, A113) was prepared in the C3bBb assay buffer. Compounds were serial diluted 3-fold in 100% DMSO for a 10-point dose-response curve. A 0.5 μL aliquot of diluted compound solution was transferred to a conical bottom 96-well plate, before 49.5 μL of the reaction mix was added to each well to initiate the reaction. The plate was incubated for 1 hour at room temperature. […] The generation of C3a from C3 by the C3bBb complex was measured using the MicroVue C3a Plus EIA ELISA kit (Quidel, A031). The concentration of C3a from each well was calculated using a standard curve. Percent inhibition values were generated using the baseline (C3 only) and the maximum control (DMSO instead of compound), and IC50 of each compound was calculated using 4-parameter logistic regression.

[1] = test system: MAC formation in normal human serum; assay: Human serum MAC formation assay (zymosan-coated plates, 50% normal human serum); conditions: 50% normal human serum with EGTA, 37° C. 30 minutes
Method: MAC deposition assay using normal human serum was applied to evaluate compound potency under physiologically relevant conditions. Black Maxisorp plates (Thermo Fisher, 437111) were coated with preactivated zymosan (Complement Technology, B400) at 0.5 mg/mL in carbonate buffer (pH 9.5, Sigma, C3041) at room temperature overnight. Compounds were serial diluted 3-fold in 100% DMSO for a 10-point dose-response curve. Normal human serum (Complement Technology, NHS) was diluted to 50% (v/v) with the gelatin buffer (4.2 mM HEPES pH 7.4, 0.15 mM CaCl2, 141 mM NaCl, 4.5 mM MgCl2, 0.1% gelatin) containing 20 mM EGTA or 20 mM EDTA. In conical bottom 96-well plates, 1 μL compound and 99 μL of serum-EGTA were mixed. Serum-EDTA was used as baseline control. The serum-compound mixture was incubated at room temperature for 15 minutes before being transferred to the washed zymosan plate for complement activation at 37° C. for 30 minutes. The reaction was terminated by decanting the reaction mixture and adding blocking buffer (Thermo Fisher, 37539) for 20 minutes. MAC formation on the ELISA plate was detected using 0.2 μg/mL mouse anti-human C9 neoepitope monoclonal antibody (Thermo Fisher, MA5-33373) diluted in phosphate-buffered saline with 0.05% Tween-20 (PBST). A goat anti-mouse IgG-HRP antibody (Thermo Fisher, A16072) was used at 1:2000 in PBST as secondary antibody. After washing, the reaction was developed using QuantaBlu (Thermo Fisher, 15169) for 20 minutes at room temperature. The plates were read at 325 nm excitation and 420 nm emission wavelengths. Percent inhibition values were generated using the baseline (EDTA-serum) and the maximum control (EGTA-serum). An IC50 for each compound was calculated using 4-parameter logistic regression.

[2] = starred values: assay conducted with 1 nM C3b:Bb enzyme
[3] = 3 nM C3bBb complex, 1 μM human C3, 1 hour room temperature

human C3bBb, sequence (P00751 260-764): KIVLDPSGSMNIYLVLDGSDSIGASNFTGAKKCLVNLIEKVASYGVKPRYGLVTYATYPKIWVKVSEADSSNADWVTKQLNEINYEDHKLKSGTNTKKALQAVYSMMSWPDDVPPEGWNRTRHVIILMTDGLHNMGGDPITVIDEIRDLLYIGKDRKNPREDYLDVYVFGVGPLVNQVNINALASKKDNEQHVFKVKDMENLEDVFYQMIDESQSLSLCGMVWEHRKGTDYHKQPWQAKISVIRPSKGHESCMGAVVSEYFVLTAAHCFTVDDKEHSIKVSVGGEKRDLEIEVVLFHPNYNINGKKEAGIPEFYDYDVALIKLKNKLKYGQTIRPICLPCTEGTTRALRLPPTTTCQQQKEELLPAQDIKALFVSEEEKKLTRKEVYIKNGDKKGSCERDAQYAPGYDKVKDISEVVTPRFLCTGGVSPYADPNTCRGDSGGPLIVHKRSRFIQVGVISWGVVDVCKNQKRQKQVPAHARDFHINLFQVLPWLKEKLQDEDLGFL
human C3bBb, sequence (P01024 23-667 partner): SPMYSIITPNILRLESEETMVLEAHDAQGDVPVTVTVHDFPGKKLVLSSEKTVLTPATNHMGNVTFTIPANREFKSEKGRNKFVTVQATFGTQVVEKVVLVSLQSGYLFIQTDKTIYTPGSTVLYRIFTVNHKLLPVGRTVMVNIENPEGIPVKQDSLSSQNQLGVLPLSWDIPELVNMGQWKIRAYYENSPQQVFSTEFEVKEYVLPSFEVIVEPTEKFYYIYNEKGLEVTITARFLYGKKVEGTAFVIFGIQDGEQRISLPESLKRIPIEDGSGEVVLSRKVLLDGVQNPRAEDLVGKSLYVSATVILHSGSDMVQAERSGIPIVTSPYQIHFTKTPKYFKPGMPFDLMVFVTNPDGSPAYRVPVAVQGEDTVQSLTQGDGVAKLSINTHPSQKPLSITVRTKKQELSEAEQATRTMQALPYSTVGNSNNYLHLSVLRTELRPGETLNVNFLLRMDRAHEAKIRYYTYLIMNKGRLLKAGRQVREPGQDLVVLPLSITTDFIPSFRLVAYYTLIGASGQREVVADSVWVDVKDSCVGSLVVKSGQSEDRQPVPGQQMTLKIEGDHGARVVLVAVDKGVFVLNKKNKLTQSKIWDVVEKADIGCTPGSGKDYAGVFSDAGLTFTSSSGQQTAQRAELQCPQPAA
human C3bBb, sequence (P01024 749-1663 partner): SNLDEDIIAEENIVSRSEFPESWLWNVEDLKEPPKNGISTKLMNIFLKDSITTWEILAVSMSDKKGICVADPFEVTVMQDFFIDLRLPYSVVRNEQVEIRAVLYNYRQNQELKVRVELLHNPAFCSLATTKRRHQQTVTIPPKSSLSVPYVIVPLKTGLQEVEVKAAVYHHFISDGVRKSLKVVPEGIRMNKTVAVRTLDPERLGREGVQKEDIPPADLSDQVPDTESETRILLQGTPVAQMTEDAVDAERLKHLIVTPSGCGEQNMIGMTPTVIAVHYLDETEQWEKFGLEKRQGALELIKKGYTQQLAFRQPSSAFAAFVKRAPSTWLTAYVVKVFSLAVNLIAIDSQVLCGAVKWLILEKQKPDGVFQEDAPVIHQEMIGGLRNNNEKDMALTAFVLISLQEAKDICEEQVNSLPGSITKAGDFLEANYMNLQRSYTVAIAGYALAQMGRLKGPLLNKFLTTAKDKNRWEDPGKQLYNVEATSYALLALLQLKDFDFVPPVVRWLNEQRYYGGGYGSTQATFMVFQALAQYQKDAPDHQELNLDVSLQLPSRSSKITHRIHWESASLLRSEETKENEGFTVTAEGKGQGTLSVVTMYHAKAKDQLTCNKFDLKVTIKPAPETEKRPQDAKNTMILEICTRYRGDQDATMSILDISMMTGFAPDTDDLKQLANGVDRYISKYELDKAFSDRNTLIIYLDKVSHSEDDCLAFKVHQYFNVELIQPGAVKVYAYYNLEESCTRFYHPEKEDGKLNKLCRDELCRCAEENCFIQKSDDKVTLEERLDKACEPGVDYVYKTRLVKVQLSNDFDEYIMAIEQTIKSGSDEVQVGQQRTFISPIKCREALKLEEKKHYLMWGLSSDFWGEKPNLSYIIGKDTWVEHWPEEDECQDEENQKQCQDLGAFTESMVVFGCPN

| SMILES | IC50 (human C3bBb; [2]) [nM] | IC50 [1] [nM] | IC50 (human C3bBb; [3]) [nM] |
| --- | --- | --- | --- |
| COc1cc(C)c2[nH]ccc2c1CN1CC[C@]2(C[C@H]1c1ccc(C(=O)O)cc1)C[C@@H](O)C2 (stereo in doubt) [Example 64, 4-((2R,4s,6S)-4-(2-hydroxy-7-((5-methoxy-7-methyl-1H-indol-4-yl)methyl)-7-azaspiro[3.5]nonan-6-yl)benzoic acid and 4-((2S,4r,6S)-2-hydroxy-7-((5-methoxy-7-methyl-1H-indol-4-yl)methyl)-7-azaspiro[3.5]nonan-6-yl)benzoic acid] | 10 to 25 | 200 to 300 |  |
| COc1cc(C)c2[nH]ccc2c1CN1CC[C@H](n2cc(F)cn2)C[C@H]1c1ccc(C(=O)O)cc1 [Example 1, 4-((2S,4S)-4-(4-fluoro-1H-pyrazol-1-yl)-1-((5-methoxy-7-methyl-1H-indol-4-yl)methyl)piperidin-2-yl)benzoic acid] |  | > 500 | 50 to 100 |
| COc1cc(C)c2[nH]ccc2c1CN1CC[C@H](n2cc(C(F)(F)F)cn2)C[C@H]1c1ccc(C(=O)O)cc1 [Example 4, 4-((2S,4S)-1-((5-methoxy-7-methyl-1H-indol-4-yl)methyl)-4-(4-(trifluoromethyl)-1H-pyrazol-1-yl)piperidin-2-yl)benzoic acid] |  | 200 to 300 | < 10 |
| COc1cc(C)c2[nH]ccc2c1CN1CC[C@H](n2cc(Cl)cn2)C[C@H]1c1ccc(C(=O)O)cc1 [Example 8] | < 10 | < 100 |  |
| COc1cc(C)c2[nH]ccc2c1CN1CC[C@H](n2cc(C#N)cn2)C[C@H]1c1ccc(C(=O)O)cc1 [Example 10, 4-((2S,4S)-4-(4-cyano-1H-pyrazol-1-yl)-1-((5-methoxy-7-methyl-1H-indol-4-yl)methyl)piperidin-2-yl)benzoic acid] |  | 300 to 500 | 50 to 100 |
| COc1cc(C)c2[nH]ccc2c1CN1CC[C@H](N2CCCC2=O)C[C@H]1c1ccc(C(=O)O)cc1 [Example 13, 4-((2S,4S)-1-((5-methoxy-7-methyl-1H-indol-4-yl)methyl)-4-(2-oxopyrrolidin-1-yl)piperidin-2-yl)benzoic acid] | 50 to 100 | 100 to 200 |  |
| COc1cc(C)c2[nH]ccc2c1CN1CC[C@H](NCC(F)(F)F)C[C@H]1c1ccc(C(=O)O)cc1 [Example 15, 4-((2S,4S)-1-((5-methoxy-7-methyl-1H-indol-4-yl)methyl)-4-((2,2,2-trifluoroethyl)amino)piperidin-2-yl)benzoic acid] | < 10 | < 100 |  |
| COc1cc(C)c2[nH]ccc2c1CN1CC[C@H](NC2COC2)C[C@H]1c1ccc(C(=O)O)cc1 [Example 18, 4-((2S,4S)-1-((5-methoxy-7-methyl-1H-indol-4-yl)methyl)-4-(oxetan-3-ylamino)piperidin-2-yl)benzoic acid] | < 10 | 100 to 200 |  |
| COc1cc(C)c2[nH]ccc2c1CN1CC[C@H](NC2CC(F)(F)C2)C[C@H]1c1ccc(C(=O)O)cc1 [Example 19, 4-((2S,4S)-4-((3,3-difluorocyclobutyl)amino)-1-((5-methoxy-7-methyl-1H-indol-4-yl)methyl)piperidin-2-yl)benzoic acid] | < 10 | < 100 |  |
| COc1cc(C)c2[nH]ccc2c1CN1CC[C@H](NC2CCC2)C[C@H]1c1ccc(C(=O)O)cc1 [Example 20, 4-((2S,4S)-4-(cyclobutylamino)-1-((5-methoxy-7-methyl-1H-indol-4-yl)methyl)piperidin-2-yl)benzoic acid] |  | 300 to 500 | 25 to 50 |
| COc1cc(C)c2[nH]ccc2c1CN1CC[C@H](NC23CC(C2)C3)C[C@H]1c1ccc(C(=O)O)cc1 [Example 21, 4-((2S,4S)-4-(bicyclo[1.1.1]pentan-1-ylamino)-1-((5-methoxy-7-methyl-1H-indol-4-yl)methyl)pyiperidin-2-yl)benzoic acid] |  | 100 to 200 | > 100 |
| COc1cc(C)c2[nH]ccc2c1CN1CC[C@H](NCC(F)F)C[C@H]1c1ccc(C(=O)O)cc1 [Example 22, 4-((2S,4S)-4-((2,2-difluoroethyl)amino)-1-((5-methoxy-7-methyl-1H-indol-4-yl)methyl)piperidin-2-yl)benzoic acid] | < 10 | 100 to 200 |  |
| COc1cc(C)c2[nH]ccc2c1CN1CC[C@H](NCC2(F)CC2)C[C@H]1c1ccc(C(=O)O)cc1 [Example 23, 4-((2S,4S)-4-(((1-fluorocyclopropyl)methyl)amino)-1-((5-methoxy-7-methyl-1H-indol-4-yl)methyl)piperidin-2-yl)benzoic acid] | 50 to 100 | 300 to 500 |  |
| COc1cc(C)c2[nH]ccc2c1CN1CC[C@H](NC2CC(F)(F)C2)C[C@H]1c1ccc(C(=O)O)cc1 [Example 24, 4-((2S,4S)-4-((3,3-difluorocyclobutyl)amino)-1-((5-methoxy-7-methyl-1H-indol-4-yl)methyl)piperidin-2-yl)benzoic acid] | 10 to 25 | 200 to 300 |  |
| Cc1cc(C2CC2)c(CN2CC[C@H](NC3CC(F)(F)C3)C[C@H]2c2ccc(C(=O)O)cc2)c2cc[nH]c12 [Example 25, 4-((2S,4S)-1-((5-cyclopropyl-7-methyl-1H-indol-4-yl)methyl)-4-((3,3-difluorocyclobutyl)amino)piperidin-2-yl)benzoic acid] | < 10 | < 100 |  |
| COc1cc(C)c2[nH]ccc2c1CN1CC[C@H](NCC2CC2)C[C@H]1c1ccc(C(=O)O)cc1 [Example 26, 4-((2S,4S)-4-((cyclopropylmethyl)amino)-1-((5-methoxy-7-methyl-1H-indol-4-yl)methyl)piperidin-2-yl)benzoic acid] | 50 to 100 | 100 to 200 |  |
| COc1cc(C)c2[nH]ccc2c1CN1CC[C@H](OC(F)F)C[C@H]1c1ccc(C(=O)O)cc1 [Example 28, 4-((2S,4S)-4-(difluoromethoxy)-1-((5-methoxy-7-methyl-1H-indol-4-yl)methyl)piperidin-2-yl)benzoic acid] | < 10 | 100 to 200 |  |
| COc1cc(C)c2[nH]ccc2c1CN1CC[C@@H](OC(F)F)C[C@@H]1c1ccc(C(=O)O)cc1 [Example 29, 4-((2R,4R)-4-(difluoromethoxy)-1-((5-methoxy-7-methyl-1H-indol-4-yl)methyl)piperidin-2-yl)benzoic acid] |  | > 500 | > 100 |
| COc1cc(C)c2[nH]ccc2c1CN1CCC2(COC2)C[C@H]1c1ccc(C(=O)O)cc1 [Example 32, (S)-4-(7-((5-methoxy-7-methyl-1H-indol-4-yl)methyl)-2-oxa-7-azaspiro[3.5]nonan-6-yl)benzoic acid] | < 10 | < 100 |  |
| COc1cc(C)c2[nH]ccc2c1CN1CC[C@H](c2ccccn2)C[C@H]1c1ccc(C(=O)O)cc1 [Example 38, 4-((2S,4S)-1-((5-methoxy-7-methyl-1H-indol-4-yl)methyl)-4-(pyridin-2-yl)piperidin-2-yl)benzoic acid] |  | 200 to 300 | 50 to 100 |
| COc1cc(C)c2[nH]ccc2c1CN1CC2(CCC2)[C@H]1c1ccc(C(=O)O)cc1 [Example 40, (R)-4-(2-((5-methoxy-7-methyl-1H-indol-4-yl)methyl)-2-azaspiro[3.3]heptan-1-yl)benzoic acid] |  | 300 to 500 | > 100 |
| COc1cc(C)c2[nH]ccc2c1CN1CC[C@H](CCC(F)(F)F)C[C@H]1c1ccc(C(=O)O)cc1 [Example 42, 4-((2S,4S)-1-((5-methoxy-7-methyl-1H-indol-4-yl)methyl)-4-(3,3,3-trifluoropropyl)piperidin-2-yl)benzoic acid] | < 10 | 200 to 300 |  |
| COc1cc(C)c2[nH]ccc2c1CN1CC[C@H](CC2CC2)C[C@H]1c1ccc(C(=O)O)cc1 [Example 44, 4-((2S,4S)-4-(cyclopropylmethyl)-1-((5-methoxy-7-methyl-1H-indol-4-yl)methyl)piperidin-2-yl)benzoic acid] | < 10 | < 100 |  |
